The record followed here is a melting point compilation (Tetko et al.; mined from patent text by program, amines drawn as free bases though some values may be those of a salt).

Structures are written as SMILES.

One may read the melting point as the temperature of the solid-liquid transition.

As for `CCc1cnc(C)c(C(=O)O)c1`, the melting point lay in the range of 218 to 220 °C. Take `C=CCN1C(=O)C(C)(CN2CCN(c3cccc4c3OCCO4)CC2)N=C1c1cccnc1` (stereo not drawn): the melting point lay within 102 to 105 °C.

On to `O=C(NS(=O)(=O)c1ccccc1)c1ccc2nc(C3CC3)n(Cc3ccc(-c4ccccc4)cc3)c2c1`, for which the melting point fell in the range of 221 to 225 °C. The value for `OC(COc1cc(-c2ccccc2)on1)CN1CCOCC1` (stereo not drawn) was 123 to 124 °C; that for `CCOC(=O)C(=CNc1nnc(C)s1)C(=O)c1cc(F)c(F)cc1F` was 147 to 151 °C. The value for `O=C(O)C1Cc2cc3c(=O)c4ccccc4oc3c(Cl)c2O1` (stereo not drawn) was 290 to 293 °C; that for `CN(C)S(=O)(=O)c1ccc(-c2ccc(-c3ccc(S(=O)(=O)N(C)C)c(S)c3)cc2)cc1S` was 194 °C. As to `Cc1ccc2cccc(N(Cc3c(Cl)ccc([N+](=O)[O-])c3Cl)C(=O)OC(C)(C)C)c2n1`, the melting point was 130 to 131 °C. The value for `CCN(CC)c1ccc(C2(c3ccc(N(C)C)cc3N(C)C)OC(=O)c3c(Cl)c(Cl)c(Cl)c(Cl)c32)cc1` (stereo not drawn) was 206 to 208 °C; that for `CNCC1COC2(CCN(c3nc4c(cc3F)C=C(C(=O)O)CN4c3ccc(F)cc3F)CC2)O1` (stereo not drawn) was 188 to 193 °C; that for `COCCc1nc2c(N)nc3ccccc3c2n1CCCCNC(=O)c1cnc2ccccc2n1` was 85 to 87 °C. The value for `COc1ncccc1C(=O)NCCc1ccncc1` was 84 to 87 °C; that for `O=C(NCC(O)c1ccccc1)c1ccc2n1Cc1ccccc1N(C(=O)COc1ccc(Cl)cc1)C2` (stereo not drawn) was 157 to 158 °C; that for `CCc1cc2c(-c3ccccc3Cl)c(NC(=O)Nc3ccc(F)cc3F)cnc2s1` was 217 to 218 °C. As for `CN(C)C[C@H]1CCSc2ccccc2[C@]1(O)c1cccc(O)c1` (racemic), the melting point was in the range of 188 to 190 °C. Turning to `Cc1oc(-c2ccco2)nc1CCOc1ccc([N+](=O)[O-])cn1`, the melting point was 120 to 122 °C. With `Cc1cc(C(F)(C(F)(F)F)C(F)(F)F)ccc1NC(=O)c1ccnc(Cl)c1C(=O)NC(C)C` the figure was 275 to 277 °C; with `Nc1ncccc1-c1nc2cc(F)cnc2n1-c1ccc(CC(=O)Nc2ccccc2)cc1`, 240 to 242 °C.

`CNN(NC)C(=O)Nc1cccc2c1C(=O)c1c-2n[nH]c1C(C)C` gave a melting point of 231 to 233 °C.

The compound `O=C(COc1ccc([N+](=O)[O-])c(F)c1)NCc1ccccc1` returned a melting point of 128 to 130 °C. With `CC(C)(Cc1ccc(Cl)cc1)C(O)(COc1ccc(Cl)cc1)c1cccnc1` (stereo not drawn) the figure was 46 to 47 °C; with `CC(n1ccnc1)C1(c2ccc(Cl)cc2Cl)SCCS1` (stereo not drawn), 142 °C. With `COC(=O)N1CCc2ccccc2CC1` the figure was 53 to 54 °C; with `CCOC(=O)C(N=C(c1ccc(Cl)cc1)c1ccc(OC)cc1O)C(=O)OCC`, 73 to 75 °C. The value for `CCO/C(=N/O)C1Cc2cc(C(C)=O)c(O)c(Cl)c2O1` (stereo not drawn) was 154 to 155 °C; that for `Cc1cn(-c2ccc([N+](=O)[O-])c(C)c2)c(C)n1` was 136 to 138 °C.

Turning to `CC(C)Cn1cc(C(=O)Nc2nccs2)c2ccc(Cl)cc21`, the melting point was 200 to 202 °C. `N=C(N)N(Cc1ccccc1)c1ccc2c3c(cccc13)CC2` came in with a melting point of 138 to 140 °C. With `CC(C)n1cc(C(=O)Nc2nccs2)c2ccc(S(C)(=O)=O)cc21` the figure was 247 to 249 °C.

On to `O=c1ccsc2c1[nH]c1ccccc12`, for which the melting point is 242 to 243 °C. In turn, `COC(=O)c1c(-c2ccccc2)nn2ccc3c(c12)C(CC#N)CC3` (stereo not drawn) showed a melting point of 214 to 215 °C. With `CN1C(=O)C(c2cccc(-c3cccnc3F)c2)(c2cc(C=NO)n(CCCF)c2)N=C1N` (stereo not drawn) the figure was 119 to 123 °C; with `CCN(CC)C(=O)c1cc2cc(OC)c(OC)cc2c(-c2ccccc2)n1`, 134 °C.
